In paper PMC11212260, “Next-generation neuropeptide Y receptor small-molecule agonists inhibit mosquito-biting behavior” (Parasites & Vectors, 2024):
pEC50: −log10 of the molar value. Where “and” joins values, the source holds several entries; their conditions need not be identical. Equal values may be shown once.

Key:
[1] = tested on: Aedes aegypti (Orlando strain) females; assay: Glytube feeding: females feeding to repletion and weight per female (meal palatability); type: in vivo; details: Supplemental Figure 1 Panel A; compounds of Fig 3; individual replicate values
Experimental: (§1) Groups of 60–150 females were placed in bucket cages with a diameter of 21.6 cm and height of 16.5 cm (VWR) and fasted with access to water for 24 h prior to feeding. Meals were delivered to females via Glytube membrane feeders as described previously. Meals consisted of 1.5 ml sheep blood (HemoStat Laboratories), saline (400 mM NaHCO3 + dih2O), or saline and test compound. Lyophilized compounds were stored at room temperature until use. High-concentration stocks (30 mM in 100% dimethyl sulfoxide [DMSO]) (Sigma-Aldrich) were stored at −20 °C and diluted in saline immediately prior to feeding. Once prepared, meals and glycerol heating elements were warmed in a 42 °C water bath for 15 min to provide warmth to attract mosquitos to feed. ATP (1 mM final concentration) and test compounds (1 μM final concentration) were added prior to placing the meal on top of the mesh on the cage containing female mosquitos. Females were allowed 15–20 min to feed to repletion. Abdominal engorgement was scored by eye and confirmed by weighing females to ensure full feeding (Data S1). […] Females were returned to their original cage with a diH2O wick for 48 h prior to behavioral testing. The lethality of each compound was measured by counting the number of dead females in each cage 24 h post-meal.
Supplementary file 13071_2024_6347_MOESM1_ESM.png: Supplementary Material 1: Figure 1. […] (A) Percent of females feeding to repletion and (B) weight per female after feeding on the indicated meal used for testing in Miniport olfactometer experiments in Figure 3B. (C) Percent of females feeding to repletion and (D) weight per female after feeding on the indicated meal used for testing in live host assays in Figure 4. Data are shown as mean with standard deviation. n = 2–22 replicate cages, 60–150 females/cage. Females were weighed in groups of five to ensure reliable readings. Kruskal–Wallis with Dunn’s multiple comparisons to saline-fed group, ns P > 0.01, * P < 0.01, *** P < 0.0001. (PNG 321 KB)

[2] = tested on: Aedes aegypti (Orlando strain) females; assay: Biting assay (mouse-in-cage); type: in vivo; parameters: key to Difference between medians: Actual (vs. saline) / Difference between medians: Hodges-Lehmann (vs. saline): differences in percent biting (blood-fed/total females, %); details: for Percentage of females that freshly blood-fed on an anesthetized mouse: fed 1 μM 48 h prior, 15 min exposure, individual replicates; for effect on biting / blood-feeding from a live host (in words): fed at a dose of 1 μM
Experimental: as §1, with “ATP (1 mM final concentration) and test compounds (1 μM final concentration) were added prior to placing the meal on top of the mesh on the cage containing female mosquitos.” left out
This assay was modified from. Females were fed and scored as described above. Forty-eight hours post-meal, females were anesthetized in a 4 °C cold room and aspirated into a petri dish (Thermo Fisher Biosciences) with a randomly assigned color powder (Slice of the Moon; Chameleon Colors) to mark their treatment group. Females were then individually removed from the color powder, placed inside a cage measuring 91 cm × 61 cm × 61 cm (BugDorm), and allowed 2–4 h to recover. Each experiment consisted of a cage with 12–20 females in each treatment group including environmental (non-fed and blood-fed) and vehicle (saline-fed) control groups. The experiment began once an anesthetized mouse was introduced to the center of the cage, and females were allowed 15 min to blood-feed. The mouse was then removed, and the cage was placed at 4 °C to anesthetize females for collection. Females were aspirated into a large glass petri dish (Pyrex) and scored under a dissection microscope (Nikon SMZ1500) for powder color and blood-feeding status. Females were scored as blood-fed if fresh blood was present in the abdomen. Percent biting was calculated as females freshly blood-fed/total females in each respective treatment group.

[3] = tested on: Aedes aegypti (Orlando strain) females; parameters: method as in PMID 30735632; details: previous work; cited from earlier work
[4] = target: Ae. aegypti NPYLR7 (Aedes aegypti, UniProt U5N1H5); parameters: method as in PMID 30735632; details: previous work; read-out: EC50 in activating NPYLR7 in vitro; cited from earlier work
Chain of Ae. aegypti NPYLR7 (U5N1H5 entry or part of it): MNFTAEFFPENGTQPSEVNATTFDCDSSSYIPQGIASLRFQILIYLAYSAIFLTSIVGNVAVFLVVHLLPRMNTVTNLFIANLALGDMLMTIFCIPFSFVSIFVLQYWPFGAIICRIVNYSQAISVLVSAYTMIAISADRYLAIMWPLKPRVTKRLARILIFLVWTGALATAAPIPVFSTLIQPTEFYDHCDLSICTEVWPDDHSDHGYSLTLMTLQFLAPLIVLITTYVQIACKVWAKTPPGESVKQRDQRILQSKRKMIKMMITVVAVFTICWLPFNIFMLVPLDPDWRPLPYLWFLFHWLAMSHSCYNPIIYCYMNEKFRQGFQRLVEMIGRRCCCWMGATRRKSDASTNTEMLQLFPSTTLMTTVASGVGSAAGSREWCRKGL

Compound	% feeding (females feeding to repletion) [1]	Difference between medians: Actual (vs. saline) ([2]; fed 1 μM)	Difference between medians: Hodges-Lehmann (vs. saline) ([2]; fed 1 μM)	Median (percent freshly blood-fed) ([2]; fed 1 μM)	Significantly different (P < 0.05)? vs. saline ([2]; fed 1 μM)	Percentage of females that freshly blood-fed on an anesthetized mouse ([2]; listed as TDI-04184)	effect on biting / blood-feeding from a live host (in words) [2]	Percentage of females that freshly blood-fed on an anesthetized mouse ([2]; listed as TDI-04186)	fed dose at which behaviorally active [3]	Difference between medians: Actual (vs. saline) ([2]; fed 100 μM)	Difference between medians: Hodges-Lehmann (vs. saline) ([2]; fed 100 μM)	Median (percent freshly blood-fed) ([2]; fed 100 μM)	Significantly different (P < 0.05)? vs. saline ([2]; fed 100 μM)	effect on blood-feeding from a live host (in words) ([2]; fed at a dose of 100 μM)	pEC50 [4]
CNc1nc(NC(=N)N)nc2cc(OCc3ccccc3)c(OC)cc12 [TDI-014184]	76.92%	-27.4	-24	47.00, n=11%	Yes	65% and 81% and 47% and 10% and 44% and 86% and 33% and 56% and 35%	reduced biting behavior	–	–	–	–	–	–	–	–
Cc1nc(NC(=N)N)nc2cc(N3CCc4ccccc4C3)ccc12 [TDI-014186]	56.22%	-18.25	-17	54.25, n=9%	Yes	–	effectively reduced biting	31% and 62% and 70% and 67% and 36% and 53% and 65%	–	–	–	–	–	–	–
COc1ccc2c(C)nc(NC(=N)N)nc2c1 [TDI-012631, reference compound]	–	–	–	–	–	–	–	–	> 30 µM	-26	-24.68	53.00, n=17%	Yes	inhibited blood-feeding	4.71
